Assay results published in PubChem BioAssay AID196 (DTP/NCI, 2004).
Several values for one entry are separate records, joined by “and”; a condition that tells them apart may be missing. Equal entries are not always repeated. Toxic doses and inconclusive results are not listed. The calls were made as follows: active = survival T/C of 150% or more; inactive = T/C below 125% in these data. *1 amine or outer side, *2 acyl side, *3 side chain or, on linkers, in order; H or OH if unused. Where a SMILES comes first, the peptide text is derived from it. Bridges are numbered along the chain shown (N, C = ends). Roman numbers before positions name the chains, in order. [ ]: non-standard residue; d: D form. Actinocin(9to1) = Cc1c2oc3c(C)ccc(C(=O)[*:1])c3nc-2c(C(=O)[*:2])c(N)c1=O; aThr = C[C@H](O)[C@H](N)C(=O)O; NMeV = CN[C@H](C(=O)O)C(C)C; Sar = CNCC(=O)O

System: BDF1 mice, intracerebral B16 melanoma, median survival T/C
Experiment: NCI In Vivo Anticancer Drug Screen. Data for tumor model B16 Melanoma (intracerebral) in B6D2F1 (BDF1) mice
Conditions: endpoint: median survival time, higher = longer survival
Method: The antitumor activity of compounds was measured in mice bearing transplantable tumors. Survival or tumor size were measured and the results are expressed as the measurement made in the treated group (T) divided by the measurement made in the vehicle treated control group (C). The tumor model used in this assay is B16 Melanoma (intracerebral) in B6D2F1 (BDF1) mice

[1] = dose: 32.0 mg/kg/injection, schedule: Q01DX005 (ip), vehicle: saline
[2] = dose: 0.75 mg/kg/injection, schedule: Q01DX009 (ip), vehicle: saline
[3] = dose: 1.5 mg/kg/injection, schedule: Q01DX009 (ip), vehicle: saline
[4] = dose: 3.12 mg/kg/injection, schedule: Q01DX009 (ip), vehicle: other
[5] = dose: 6.25 mg/kg/injection, schedule: Q01DX009 (ip), vehicle: other
[6] = dose: 12.5 mg/kg/injection, schedule: Q01DX009 (ip), vehicle: other
[7] = dose: 25.0 mg/kg/injection, schedule: Q01DX009 (ip), vehicle: other
[8] = dose: 50.0 mg/kg/injection, schedule: Q01DX009 (ip), vehicle: other

Measured: T/C

F
inactive: dose: 16.0 mg/kg/injection, schedule: Q01DX005 (ip), vehicle: saline 102 % of control | [1] 100 % of control

CC(=O)OCC1C(=O)OCC1C(=O)N1Cc2cc3ccccc3nc2C1 (stereo unspecified)
inactive: dose: 8.0 mg/kg/injection, schedule: Q01DX009 (ip), vehicle: saline with Tween-80 111 % of control | dose: 16.0 mg/kg/injection, schedule: Q01DX009 (ip), vehicle: saline with Tween-80 99 % of control | dose: 32.0 mg/kg/injection, schedule: Q01DX009 (ip), vehicle: saline with Tween-80 103 % of control | dose: 64.0 mg/kg/injection, schedule: Q01DX009 (ip), vehicle: saline with Tween-80 95 % of control | dose: 128.0 mg/kg/injection, schedule: Q01DX009 (ip), vehicle: saline with Tween-80 93 % of control

CN(C)CC(=O)c1ccc(O)c(O)c1
inactive: dose: 100.0 mg/kg/injection, schedule: Q01DX005 (ip), vehicle: saline 96 % of control | dose: 200.0 mg/kg/injection, schedule: Q01DX005 (ip), vehicle: saline 124 % of control and 97 % of control | dose: 400.0 mg/kg/injection, schedule: Q01DX005 (ip), vehicle: saline 119 % of control | dose: 800.0 mg/kg/injection, schedule: Q01DX005 (ip), vehicle: saline 90 % of control and 108 % of control

CCCCCCC(=O)O[C@H]1CC[C@H]2[C@@H]3CCC4=CC(=O)CC[C@]4(C)[C@H]3CC[C@]12C
inactive: dose: 8.0 mg/kg/injection, schedule: Q01DX009 (ip), vehicle: Klucel (hydroxypropylcellulose) (HPC) 107 % of control | dose: 16.0 mg/kg/injection, schedule: Q01DX009 (ip), vehicle: Klucel (hydroxypropylcellulose) (HPC) 98 % of control | dose: 32.0 mg/kg/injection, schedule: Q01DX009 (ip), vehicle: Klucel (hydroxypropylcellulose) (HPC) 100 % of control | dose: 64.0 mg/kg/injection, schedule: Q01DX009 (ip), vehicle: Klucel (hydroxypropylcellulose) (HPC) 96 % of control | dose: 128.0 mg/kg/injection, schedule: Q01DX009 (ip), vehicle: Klucel (hydroxypropylcellulose) (HPC) 103 % of control

CC(=O)OC1COC(NC(=O)N(CCCl)N=O)C(OC(C)=O)C1OC(C)=O (stereo unspecified)
inactive: dose: 0.18 mg/kg/injection, schedule: Q01DX009 (ip), vehicle: saline 104 % of control | dose: 0.37 mg/kg/injection, schedule: Q01DX009 (ip), vehicle: saline 104 % of control | [2] 113 % of control | [3] 113 % of control

O=c1[nH]cc(F)c(=O)[nH]1
inactive: dose: 5.0 mg/kg/injection, schedule: Q01DX009 (ip), vehicle: saline 104 % of control and 108 % of control | dose: 10.0 mg/kg/injection, schedule: Q01DX009 (ip), vehicle: saline 90 % of control and 116 % of control | dose: 20.0 mg/kg/injection, schedule: Q01DX009 (ip), vehicle: saline 104 % of control and 112 % of control | dose: 40.0 mg/kg/injection, schedule: Q01DX009 (ip), vehicle: saline 87 % of control and 109 % of control

CN(C)N=Nc1ccnc2ccc(Br)cc12
inactive: [4] 102 % of control | [5] 102 % of control | [6] 97 % of control | [7] 107 % of control | [8] 102 % of control

OC(C1CO1)C(O)C1CO1 (stereo unspecified)
inactive: dose: 0.12 mg/kg/injection, schedule: Q01DX009 (ip), vehicle: saline 100 % of control and 101 % of control | dose: 0.25 mg/kg/injection, schedule: Q01DX009 (ip), vehicle: saline 122 % of control and 110 % of control | dose: 0.5 mg/kg/injection, schedule: Q01DX009 (ip), vehicle: saline 94 % of control and 112 % of control | dose: 1.0 mg/kg/injection, schedule: Q01DX009 (ip), vehicle: saline 120 % of control and 103 % of control | dose: 2.0 mg/kg/injection, schedule: Q01DX009 (ip), vehicle: saline 123 % of control

Cc1c2oc3c(C)ccc(C(=O)N[C@@H]4C(=O)N[C@H](C(C)C)C(=O)N5CCC[C@H]5C(=O)N(C)CC(=O)N(C)[C@@H](C(C)C)C(=O)O[C@H]4C)c3nc-2c(C(=O)N[C@@H]2C(=O)N[C@H](C(C)C)C(=O)N3CCC[C@H]3C(=O)N(C)CC(=O)N(C)[C@@H](C(C)C)C(=O)O[C@H]2C)c(N)c1=O (I: [aThr][dV]P[Sar][NMeV] / II: [aThr][dV]P[Sar][NMeV]; ester I:1-I:C, II:1-II:C; linker I:N-II:N via Actinocin(9to1))
inactive: dose: 0.02 mg/kg/injection, schedule: Q01DX009 (ip), vehicle: water 118 % of control | dose: 0.05 mg/kg/injection, schedule: Q01DX009 (ip), vehicle: water 109 % of control

N=[N+]=CC(=O)CCC(NC(=O)C(CCC(=O)C=[N+]=N)NC(=O)CCC(N)C(=O)O)C(=O)O (stereo unspecified)
inactive: dose: 0.05 mg/kg/injection, schedule: Q01DX005 (ip), vehicle: Klucel (hydroxypropylcellulose) (HPC) 124 % of control and 108 % of control | dose: 0.1 mg/kg/injection, schedule: Q01DX005 (ip), vehicle: Klucel (hydroxypropylcellulose) (HPC) 97 % of control and 108 % of control | dose: 0.2 mg/kg/injection, schedule: Q01DX005 (ip), vehicle: Klucel (hydroxypropylcellulose) (HPC) 120 % of control and 111 % of control | dose: 0.4 mg/kg/injection, schedule: Q01DX005 (ip), vehicle: Klucel (hydroxypropylcellulose) (HPC) 112 % of control

CN(C)N=Nc1cccc2c1N(C)c1ccc(F)cc1S2
inactive: [5] 109 % of control | [6] 110 % of control | [7] 108 % of control | [8] 115 % of control | dose: 100.0 mg/kg/injection, schedule: Q01DX009 (ip), vehicle: other 112 % of control

CN(N=O)C(=O)N[C@@H](C=O)[C@@H](O)[C@H](O)[C@H](O)CO
inactive: dose: 0.12 mg/kg/injection, schedule: Q01DX009 (ip), vehicle: citric acid 101 % of control | dose: 0.25 mg/kg/injection, schedule: Q01DX009 (ip), vehicle: citric acid 94 % of control | dose: 0.5 mg/kg/injection, schedule: Q01DX009 (ip), vehicle: citric acid 104 % of control | dose: 1.0 mg/kg/injection, schedule: Q01DX009 (ip), vehicle: citric acid 102 % of control | dose: 2.0 mg/kg/injection, schedule: Q01DX009 (ip), vehicle: citric acid 102 % of control | dose: 5.0 mg/kg/injection, schedule: Q01DX009 (ip), vehicle: citric acid 102 % of control | dose: 10.0 mg/kg/injection, schedule: Q01DX009 (ip), vehicle: citric acid 108 % of control | dose: 0.12 micrograms/kg/injection, schedule: Q01DX009 (ip), vehicle: citric acid 94 % of control

O=[N+]([O-])O.[Ga]
inactive: [1] 112 % of control | dose: 64.0 mg/kg/injection, schedule: Q01DX005 (ip), vehicle: saline 93 % of control and 112 % of control | dose: 128.0 mg/kg/injection, schedule: Q01DX005 (ip), vehicle: saline 103 % of control

NC(=S)N/N=C/c1ccc(O)cn1
inactive: dose: 12.0 mg/kg/injection, schedule: Q01DX005 (ip), vehicle: saline 96 % of control | dose: 12.0 mg/kg/injection, schedule: Q01DX005 (ip), vehicle: suspension in saline 103 % of control | dose: 24.0 mg/kg/injection, schedule: Q01DX005 (ip), vehicle: saline 93 % of control | dose: 24.0 mg/kg/injection, schedule: Q01DX005 (ip), vehicle: suspension in saline 96 % of control | dose: 48.0 mg/kg/injection, schedule: Q01DX005 (ip), vehicle: saline 100 % of control | dose: 48.0 mg/kg/injection, schedule: Q01DX005 (ip), vehicle: suspension in saline 91 % of control | dose: 96.0 mg/kg/injection, schedule: Q01DX005 (ip), vehicle: saline 97 % of control | dose: 96.0 mg/kg/injection, schedule: Q01DX005 (ip), vehicle: suspension in saline 108 % of control

CN(C)N=Nc1ccnc2ccc(I)cc12
inactive: [4] 112 % of control | [5] 110 % of control | [6] 95 % of control | [7] 110 % of control | [8] 109 % of control

Nc1nncs1
inactive: dose: 64.0 mg/kg/injection, schedule: Q01DX005 (ip), vehicle: saline with Tween-80 100 % of control and 107 % of control | dose: 128.0 mg/kg/injection, schedule: Q01DX005 (ip), vehicle: saline with Tween-80 119 % of control and 97 % of control | dose: 256.0 mg/kg/injection, schedule: Q01DX005 (ip), vehicle: saline with Tween-80 113 % of control | dose: 512.0 mg/kg/injection, schedule: Q01DX005 (ip), vehicle: saline with Tween-80 113 % of control

CN(Cc1cnc2nc(N)nc(N)c2n1)c1ccc(C(=O)N[C@@H](CCC(=O)O)C(=O)O)cc1
inactive: dose: 0.38 mg/kg/injection, schedule: Q01DX009 (ip), vehicle: saline 108 % of control | dose: 0.5 mg/kg/injection, schedule: Q01DX009 (ip), vehicle: sodium bicarbonate 104 % of control | [2] 100 % of control and 104 % of control | dose: 1.0 mg/kg/injection, schedule: Q01DX009 (ip), vehicle: sodium bicarbonate 100 % of control | [3] 95 % of control and 100 % of control | dose: 2.0 mg/kg/injection, schedule: Q01DX009 (ip), vehicle: sodium bicarbonate 95 % of control | dose: 3.0 mg/kg/injection, schedule: Q01DX009 (ip), vehicle: saline 112 % of control | dose: 4.0 mg/kg/injection, schedule: Q01DX009 (ip), vehicle: sodium bicarbonate 100 % of control
